The Kinase Knowledgebase extract (Sharma et al. 2016)

How the values were obtained:
EGFR (Hamster) = EGFR (Hamster) (UniProt P00533); details: for inhibition: er22, dose or concentration not given here; for IC50: er22
EGFR = EGFR (UniProt P00533); details: for inhibition: concentration not given here
Chain of EGFR (P00533 whole entry, looked up): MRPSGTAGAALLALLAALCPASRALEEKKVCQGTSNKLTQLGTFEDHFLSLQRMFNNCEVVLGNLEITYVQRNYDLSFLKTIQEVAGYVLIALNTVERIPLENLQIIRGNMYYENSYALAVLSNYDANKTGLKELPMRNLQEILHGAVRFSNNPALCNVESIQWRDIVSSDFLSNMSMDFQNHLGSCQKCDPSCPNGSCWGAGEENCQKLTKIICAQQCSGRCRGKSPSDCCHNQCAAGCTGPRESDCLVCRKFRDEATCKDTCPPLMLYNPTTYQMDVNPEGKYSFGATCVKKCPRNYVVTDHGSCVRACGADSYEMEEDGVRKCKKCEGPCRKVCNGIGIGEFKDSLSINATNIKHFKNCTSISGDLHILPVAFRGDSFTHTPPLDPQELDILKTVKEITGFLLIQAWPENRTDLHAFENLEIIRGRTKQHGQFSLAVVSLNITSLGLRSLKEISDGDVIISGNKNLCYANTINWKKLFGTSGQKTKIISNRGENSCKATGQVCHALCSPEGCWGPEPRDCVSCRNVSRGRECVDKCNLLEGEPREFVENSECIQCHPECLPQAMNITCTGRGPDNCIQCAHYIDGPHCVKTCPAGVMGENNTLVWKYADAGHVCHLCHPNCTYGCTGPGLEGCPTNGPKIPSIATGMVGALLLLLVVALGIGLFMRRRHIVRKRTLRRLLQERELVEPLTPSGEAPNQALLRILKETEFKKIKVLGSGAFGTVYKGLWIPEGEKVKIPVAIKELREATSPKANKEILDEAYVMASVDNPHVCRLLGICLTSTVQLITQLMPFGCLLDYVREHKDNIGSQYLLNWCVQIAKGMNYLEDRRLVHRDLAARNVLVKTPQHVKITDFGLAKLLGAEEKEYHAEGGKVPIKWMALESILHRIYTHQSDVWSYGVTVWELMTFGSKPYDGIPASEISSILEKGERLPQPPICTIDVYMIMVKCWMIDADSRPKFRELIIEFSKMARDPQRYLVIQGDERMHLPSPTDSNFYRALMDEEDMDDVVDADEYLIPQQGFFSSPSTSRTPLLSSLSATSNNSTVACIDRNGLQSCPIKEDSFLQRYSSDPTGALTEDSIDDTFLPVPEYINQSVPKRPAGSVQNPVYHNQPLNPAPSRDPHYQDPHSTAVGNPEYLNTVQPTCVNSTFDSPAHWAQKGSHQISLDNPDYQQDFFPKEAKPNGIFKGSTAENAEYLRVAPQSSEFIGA

Chain of EGFR (Hamster) (P00533 whole entry, looked up): as above

inhibition (EGFR)	IC50 (EGFR (Hamster))	SMILES	inhibition (EGFR (Hamster))	also measured
0%	–	CC(COC(=O)c1cc(N=Cc2cc(O)ccc2O)ccc1O)CC(C)(C)C (configuration not stated)	–	–
–	> 2 µM	CC(C)(C)CCOC(=O)c1cc(N=Cc2cc(O)ccc2O)ccc1O	0%	–
–	> 5 µM	O=C(Oc1cccc(O)c1)c1cc(NCc2cc(O)ccc2O)ccc1O	0%	–
0%	–	CC(CCOC(=O)c1cc(NCc2cc(O)ccc2O)ccc1O)CC(C)(C)C (configuration not stated)	–	–

The next lines start with the compound.

SMILES	inhibition (EGFR)	IC50 (EGFR (Hamster))	inhibition (EGFR (Hamster))	also measured
CCCCCCCCCCCCCCCCOC(=O)c1cc(NCc2cc(O)ccc2O)ccc1O	0%	–	0%	–
CONC(=O)c1cc(N=Cc2cc(O)ccc2O)ccc1O	–	> 100 µM	–	–
O=C(Oc1ccc2ccccc2c1)c1cc(NCc2cc(O)ccc2O)ccc1O	–	–	–	IC100 (EGFR): 0.09 µM
CC(C)(C)OC(=O)c1cc(N=Cc2cc(O)ccc2O)ccc1O	–	> 10 µM	–	–
O=C(OCCC1[C@H]2C[C@@H]3C[C@@H](C[C@H]1C3)C2)c1cc(NCc2cc(O)ccc2O)ccc1O (some centres not stated)	0%	1.25 µM	–	IC50 (EGFR): > 5 µM
CC(C)(C)ONC(=O)c1cc(N=Cc2cc(O)ccc2O)ccc1O	–	> 20 µM	0%	–
O=C(Cc1cc(N=Cc2cc(O)ccc2O)ccc1O)NOCc1ccccc1	–	–	61%	–
